Tests used:
[1] = tested on: Puccinia recondita f. Sp. Tritici; assay: Fungicidal activity against Puccinia recondita f. sp. tritici / wheat / leaf disc preventative (brown rust); format: in vivo; conditions: foliar, 200 ppm in the applied formulation, wheat leaf segments, preventative, compared to untreated control leaf disks, read-out: disease control
How it was run: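 Percent disease control relative to untreated check segments is scored once disease develops, 7 to 9 days after application. Wheat cv. Kanzler segments receive compound spray (200 ppm in formulation) one day before spore inoculation, then sit at 19° C. and 75% rh under 12 h light/12 h dark.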

Phakopsora Pachyrhizi = assay: Fungicidal activity against Phakopsora pachyrhizi / soybean / leaf disc preventative (Asian soybean rust); format: in vivo; conditions: foliar, 200 ppm in the applied formulation, soybean leaf disks, compared to untreated control leaf disks, read-out: disease control
How it was run: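 Scored 12 to 14 days post-application as percent control relative to untreated check discs, rust spores were sprayed under the disc one day after compound treatment. Incubation: 20°C, 75% rh, first 24–36 h in darkness, then 12 h daily light; discs kept on water agar.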

[2] = tested on: Glomerella lagenarium (Colletotrichum lagenarium); assay: Fungicidal activity against Glomerella lagenarium (Colletotrichum lagenarium) liquid culture / cucumber / preventative (anthracnose); format: cell-based; conditions: Colletotrichum orbiculare; 20 ppm in the applied formulation; liquid culture (PDB), growth inhibition measured photometrically after 3 to 4 days; compared to untreated control; read-out: disease control
How it was run: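 Percent activity against the untreated check was derived from photometric growth measurements made 2 to 7 days after conidia in potato dextrose broth were combined with compound at 20 ppm. Cultures were kept dark at 24 °C and 96% humidity.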

[3] = tested on: Puccinia recondita f. Sp. Tritici; assay: Fungicidal activity against Puccinia recondita f. sp. tritici / wheat / leaf disc curative (brown rust); format: in vivo; conditions: foliar, 24 h, 200 ppm in the applied formulation, wheat leaf segments, curative (applied 1 day after inoculation), compared to untreated control leaf disks, read-out: disease control
How it was run: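 Inoculate cv. Kanzler segments on agar; hold dark, 19° C, 75% RH. Spray diluted formulated compound at day 1. Incubate 12 h light/12 h dark, same temperature and humidity; score % control vs untreated 6–8 days later.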

O=C(C1CCSCC1)N(Cc1ccc(-c2noc(C(F)(F)F)n2)cc1)C1CC1 [Compound 1.123, N-cyclopropyl-N-[[4-[5-(trifluoromethyl)-1,2,4-oxadiazol-3-yl]phenyl]methyl]-tetrahydrothiopyran-4-carboxamide]
≥ 80%: pest or weed control at 200 ppm [1] | pest or weed control at 200 ppm (Phakopsora Pachyrhizi) | inhibition of growth at 20 ppm [2] | pest or weed control at 200 ppm [3]

C#CCN(Cc1ccc(-c2noc(C(F)(F)F)n2)cc1)C(=O)CC(C)C [Compound 1.175, 3-methyl-N-prop-2-ynyl-N-[[4-[5-(trifluoromethyl)-1,2,4-oxadiazol-3-yl]phenyl]methyl]-butanamide]
≥ 80%: pest or weed control at 200 ppm [1] | pest or weed control at 200 ppm (Phakopsora Pachyrhizi) | inhibition of growth at 20 ppm [2] | pest or weed control at 200 ppm [3]

CCC(=O)OCCN(Cc1ccc(-c2noc(C(F)(F)F)n2)cc1)C(=O)CC [Compound 1.590, 2-[propanoyl-[[4-[5-(trifluoromethyl)-1,2,4-oxadiazol-3-yl]phenyl]methyl]-amino]ethyl propanoate]
≥ 80%: pest or weed control at 200 ppm [1] | pest or weed control at 200 ppm (Phakopsora Pachyrhizi) | inhibition of growth at 20 ppm [2] | pest or weed control at 200 ppm [3]

CC(C)N(Cc1ccc(-c2noc(C(F)(F)F)n2)cc1)C(=O)CC(F)(F)F [Compound 1.686, 3,3,3-trifluoro-N-isopropyl-N-[[4-[5-(trifluoromethyl)-1,2,4-oxadiazol-3-yl]phenyl]methyl]-propanamide]
≥ 80%: pest or weed control at 200 ppm [1] | pest or weed control at 200 ppm (Phakopsora Pachyrhizi) | inhibition of growth at 20 ppm [2] | pest or weed control at 200 ppm [3]

COCCCC(=O)N(O)Cc1ccc(-c2noc(C(F)(F)F)n2)cc1 [Compound 1.769, N-hydroxy-4-methoxy-N-[[4-[5-(trifluoromethyl)-1,2,4-oxadiazol-3-yl]phenyl]methyl]-butanamide]
≥ 80%: pest or weed control at 200 ppm [1] | pest or weed control at 200 ppm (Phakopsora Pachyrhizi) | inhibition of growth at 20 ppm [2] | pest or weed control at 200 ppm [3]

C=CCN(Cc1ccc(-c2noc(C(F)(F)F)n2)cc1)C(=O)C1CC1C (stereo not drawn) [Compound 1.480, N-allyl-2-methyl-N-[[4-[5-(trifluoromethyl)-1,2,4-oxadiazol-3-yl]phenyl]methyl]-cyclopropane-carboxamide]
≥ 80%: pest or weed control at 200 ppm [1] | pest or weed control at 200 ppm (Phakopsora Pachyrhizi) | inhibition of growth at 20 ppm [2] | pest or weed control at 200 ppm [3]

CCC(=O)N(Cc1c(F)cc(-c2noc(C(F)(F)F)n2)cc1F)OC [Compound 1.594, N-[[2,6-difluoro-4-[5-(trifluoromethyl)-1,2,4-oxadiazol-3-yl]phenyl]methyl]-N-methoxy-propanamide]
≥ 80%: pest or weed control at 200 ppm [1] | pest or weed control at 200 ppm (Phakopsora Pachyrhizi) | inhibition of growth at 20 ppm [2] | pest or weed control at 200 ppm [3]

O=C(ON(Cc1ccc(-c2noc(C(F)(F)F)n2)cc1)C(=O)C1CC1)C1CC1 [Compound 1.608, [cyclopropanecarbonyl-[[4-[5-(trifluoromethyl)-1,2,4-oxadiazol-3-yl]phenyl]methyl]-amino]-cyclopropane-carboxylate]
≥ 80%: pest or weed control at 200 ppm [1] | pest or weed control at 200 ppm (Phakopsora Pachyrhizi) | inhibition of growth at 20 ppm [2] | pest or weed control at 200 ppm [3]

COCC(=O)N(Cc1ccc(-c2noc(C(F)(F)F)n2)cc1)C1COC1 [Compound 1.613, 2-methoxy-N-(oxetan-3-yl)-N-[[4-[5-(trifluoromelhyl)-1,2,4-oxadiazol-3-yl]phenyl]methyl]-acetamide]
≥ 80%: pest or weed control at 200 ppm [1] | pest or weed control at 200 ppm (Phakopsora Pachyrhizi) | inhibition of growth at 20 ppm [2] | pest or weed control at 200 ppm [3]

— patent US11180462B2, “Microbiocidal oxadiazole derivatives” (SYNGENTA PARTICIPATIONS AG, priority 2015, dated 2021)
